Data reported in the supplement of paper PMC10307832.

Assays:
[1] = compound: C1=CC2=NC=CN=C2C=C1/C=C/3\C(=O)NC(=O)S3; assay: relative viability (nuclei count vs DMSO), 5 days (fraction); higher = more cells survive
Procedure, shortened: (§1)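 For viability, nuclei in each treated well were divided by nuclei in vehicle wells and the median across plates was taken. Lung cancer cell lines in 1536-well plates were pinned with five library-drug doses (not always all listed) spaced by √10, cultured 5 days without medium change, and imaged at 4× after Hoechst staining, with plates passing only at control CV below 25% and at least one doubling.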

BGJ398 = compound: CCN1CCN(c2ccc(Nc3cc(N(C)C(=O)Nc4c(Cl)c(OC)cc(OC)c4Cl)ncn3)cc2)CC1 [BGJ398]; assay: as above
Procedure, shortened: as §1

Cell Line | relative viability ([1]; 0.02 µM) | relative viability ([1]; 0.06325 µM) | relative viability ([1]; 0.2 µM) | relative viability ([1]; 0.6325 µM) | relative viability ([1]; 2 µM) | relative viability (BGJ398; 0.01 µM) | relative viability (BGJ398; 0.03162 µM) | relative viability (BGJ398; 0.1 µM) | relative viability (BGJ398; 0.3162 µM) | relative viability (BGJ398; 1 µM)
NCI-H1666 | 0.944 | 0.962 | 0.966 | 0.971 | 0.893 | 1 | 1.03 | 0.966 | 0.98 | 0.8
NCI-H1703 | 1.09 | 1.33 | 0.942 | 0.864 | 0.736 | 0.872 | 1.04 | 1.02 | 0.806 | 0.967
NCI-H1734 | 0.94 | – | 1.07 | 0.916 | 0.635 | 0.895 | 1.02 | 1.06 | 0.93 | 1.05
NCI-H1755 | 0.887 | 0.949 | 0.986 | 0.925 | 0.93 | 0.933 | 1.06 | 1.05 | 0.963 | 1.01
NCI-H1792 | 0.956 | 0.783 | 0.927 | 0.857 | 0.411 | 0.903 | 0.851 | 0.704 | 0.811 | 0.652
NCI-H1793 | 0.81 | 0.729 | 1.02 | 0.739 | 0.736 | 0.877 | 0.644 | 0.927 | 0.698 | 0.808
NCI-H1915 | 0.98 | 1.1 | 1.07 | 0.966 | 0.966 | 0.971 | 1.02 | 0.995 | 0.965 | 0.939
NCI-H1944 | 0.902 | 1.07 | 1.09 | 0.871 | 0.77 | 0.869 | 0.985 | 0.973 | 0.873 | 0.946
NCI-H1975 | 0.842 | 1.02 | 0.964 | 0.884 | 0.813 | 0.876 | 1.06 | 1.09 | 0.937 | 0.866
NCI-H1993 | 0.815 | 0.956 | 1.02 | 0.923 | 0.622 | 1.24 | 0.893 | 0.957 | 0.972 | 0.886
NCI-H2009 | 0.996 | 1.03 | 1.04 | 1.02 | 0.923 | 0.924 | 1.07 | 0.994 | 0.974 | 1.06
NCI-H2023 | 0.94 | 0.966 | 1.02 | 0.886 | 0.773 | 0.872 | 0.998 | 0.997 | 0.977 | 1.01
NCI-H2085 | 0.952 | 1.01 | 1 | 0.983 | 0.892 | 0.951 | 1.01 | 1.01 | 0.938 | 1.03
NCI-H2087 | 0.918 | 0.925 | 1.05 | 0.951 | 0.926 | 1.01 | 1.01 | 0.966 | 1.08 | 1.09
NCI-H2126 | 0.885 | 1.07 | 0.956 | 0.979 | 0.621 | 1.02 | 0.999 | 1.04 | 0.989 | 0.948
NCI-H2170 | 0.909 | 1 | 1.01 | 0.938 | 0.998 | 0.988 | 1.06 | 1.1 | 1.03 | 1.07
NCI-H2228 | 0.898 | 1.06 | 1.22 | 0.898 | 0.842 | 0.814 | 1.18 | 1.38 | 0.876 | 0.963
NCI-H2342 | 0.832 | 1.01 | 0.989 | 0.904 | 0.803 | 0.998 | 0.96 | 0.934 | 1.02 | 1.11
NCI-H2347 | 0.971 | 0.913 | 1 | 1 | 0.918 | 0.957 | 1.09 | 1.06 | 1.04 | 0.94
NCI-H2405 | 1.08 | 1.02 | 1.02 | 1.01 | 0.394 | 1.04 | 1.11 | 0.99 | 1.01 | 0.958
NCI-H3122 | 1 | 1.04 | 0.975 | 0.949 | 0.984 | 0.934 | 1.01 | 1.04 | 0.977 | 1.01
PC-3 [JPC-3] | 0.991 | 1.07 | 1.06 | 1 | 1.04 | 1.05 | – | 1.05 | 0.695 | 0.919
PC-14 | 1.02 | 1.02 | 1.01 | 0.982 | 0.989 | 1.01 | 0.732 | 1.04 | 0.766 | 0.93
RERF-LC-KJ | 0.908 | 1.02 | 1 | 0.948 | 0.841 | 1.04 | 1.05 | 1.06 | 0.987 | 1.05
SK-LU-1 | 1.06 | 1.21 | 1.09 | 1.02 | 0.969 | 0.983 | 1.07 | 1.22 | 0.978 | 1.03
SK-MES-1 | 0.971 | 1.08 | 1.02 | 0.984 | 0.875 | 0.941 | 1.05 | 1.05 | 0.981 | 1.01
SW 900 | 0.888 | 0.978 | 1.04 | 0.705 | 0.965 | 1 | 0.899 | 0.779 | 0.428 | 0.453
SW 1573 | 0.984 | 1.26 | 1.09 | 0.948 | 0.79 | 0.975 | 0.934 | 0.94 | 0.893 | 0.999
